Measured values as given in US20220257597A1, “Methods of Administering Elagolix” (AbbVie Inc., priority 2021, published 2022).
Read-outs that look alike come from different tables or passages of the source.

Key:
[1] = Drug interaction studies: change in pharmacokinetics of co-administered drug in the presence of elagolix; assay type: in vivo, human; details: ethinyl estradiol 35 mcg and triphasic norgestimate 0.18/0.215/0.25 mg once daily; elagolix 150 mg once daily; N 21
Protocol: Drug interaction studies were performed with elagolix and other drugs likely to be co-administered and with drugs commonly used as probes for pharmacokinetic interactions. Tables 8 and 9 summarize the pharmacokinetic effects when elagolix was co-administered with these drugs.

[2] = Drug-drug interaction study: effect of multiple doses of elagolix sodium on pharmacokinetics of bupropion (CYP2B6 substrate) and OH-bupropion; details: for t1/2: harmonic mean; for AUCinf / AUCt / Cmax: mean; for Tmax / Metabolite to Parent AUCinf Ratio / Metabolite to Parent AUCt Ratio / Metabolite to Parent Cmax Ratio: median; for Tmax: N = 24
Protocol: Subjects: Twenty four (24) adult premenopausal women in generally good health participated in this study.
Elagolix 300 mg BID (as 300 mg immediate release tablets) was administered in the morning and evening on days 1 through 14 in period 2. […] No food was consumed for 2 hours prior to the evening doses of elagolix continuing through 2 hours after. The doses of elagolix were separated by approximately 12 hours.
Individual PK parameters (peak concentration [Cmax] and area under the concentration-time curve [AUC]) were estimated using noncompartmental methods.
Central value ratios (90% confidence intervals) for Cmax, AUC, and metabolite to parent ratios (MPRs) (day 11, period 2 vs. day 1, period 1) were calculated to assess the DDIs. Safety was evaluated through assessment of adverse events, vital signs, electrocardiogram, and clinical laboratory tests.
Adverse events (AEs) were monitored throughout the DDI study. Additional safety evaluations included monitoring of physical examinations, vital signs, electrocardiogram variables, and clinical laboratory values were assessed

[3] = Drug interactions: effects of ORIAHNN on other drugs; details: co-administration of ORIAHNN
[4] = Phase 1 open-label study: coadministration of combined oral contraceptive (EE+LNG) with elagolix sodium, pharmacokinetics, safety and tolerability; assay type: in vivo, human; details: for AUC(0-inf) / AUC(0-t) / Cmax: female, human, in vivo, oral
Protocol: Objective: To evaluate the effect of elagolix on the pharmacokinetics, safety, and tolerability of a single dose of a combined oral contraceptive (COC) containing EE and LNG in healthy premenopausal female subjects. […] [table] […] Diagnosis and Main Criteria for Inclusion: Subjects were premenopausal females, and age was between 18 and 49 years, inclusive. Test Product, Dose/Strength/Concentration, and Mode of Administration: […] EE/LNG 0.02 mg/0.1 mg tablet; All study drugs were administered orally. Duration of Treatment: […] EE/LNG: 0.02 mg/0.1 mg on two separate occasions. Criteria for Evaluation: Pharmacokinetic: Cmax, Tmax, t1/2 and AUC. Safety: Vital signs, physical examinations, laboratory tests, and adverse events. […] The tabulation of the number of subjects with treatment-emergent adverse events also was provided with further breakdowns by severity rating and relationship to study drug.

[5] = Drug interactions: effects of ORILISSA on other drugs; details: co-administration of ORILISSA
[6] = Drug-drug interaction study: effect of multiple doses of elagolix sodium on pharmacokinetics of omeprazole (CYP2C19 substrate) and its metabolites; details: for AUCinf / AUCt / Cmax: geometric mean; for RAUCinf = metabolite-to-omeprazole AUCinf ratio / RAUCt = metabolite-to-omeprazole AUCt ratio / Tmax: median
Protocol: Subjects: Twenty adult premenopausal female subjects were enrolled in the study.
Beginning on Day 3, subjects received elagolix 300 mg BID under fasting conditions every day until Day 10. […] Doses of elagolix were separated by approximately 12 hours.
Testing was performed for CYP2C19 variants including the *2 (r54244285), *3 (r54986893), *4 (r528399504), *8 (r541291556), *10 (r56413438) and *12 (r555640102) alleles.
Safety was evaluated during confinement and at each study visit through adverse event monitoring, vital signs measurements, physical examinations, and routine laboratory tests.

[7] = bupropion 150 mg + elagolix 300 mg BID (Day 11, Period 2)
[8] = bupropion 150 mg alone (Day 1, Period 1)
[9] = bupropion + elagolix (Day 11, Period 2)
[10] = bupropion alone (Day 1, Period 1)
[11] = co-administration with elagolix
[12] = single 150 mg bupropion, elagolix 300 mg twice daily
[13] = ethinyl estradiol 20 mcg/levonorgestrel 0.1 mg single dose, elagolix 200 mg twice daily x 15 days, N 20
[14] = following elagolix 200 mg BID for 14 days
[15] = Study Day 11, omeprazole 40 mg + elagolix 300 mg BID
[16] = Study Day 11: elagolix 300 mg BID + omeprazole 40 mg
[17] = single 40 mg omeprazole, elagolix 300 mg twice daily

With `C#CC1(O)CC[C@H]2[C@@H]3CCC4=CC(=O)CC[C@@H]4[C@H]3CC[C@@]21CC` (stereo partly shown) [Norgestrel] the “Ratio (90% CI) AUC, co-administration with elagolix vs medication alone” value [1] was 0.92 and the “Ratio (90% CI) Cmax, co-administration with elagolix vs medication alone” value [1] was 0.89.
`CC(NC(C)(C)CO)C(=O)c1cccc(Cl)c1` (stereo not shown) [OH-Bupropion] gave a t1/2 [2, 7] of 20.5 h, an AUCinf [2, 7] of 17600 ng·h/mL and an AUCt [2, 7] of 17000 ng·h/mL. The Cmax [2, 7] was 429 ng/mL, the Tmax [2, 7] was 6.0 h and the t1/2 [2, 8] was 24.7 h. The AUCinf [2, 8] was 16700 ng·h/mL, the AUCt [2, 8] was 15700 ng·h/mL and the Cmax [2, 8] was 323 ng/mL. For the same compound, the Tmax [2, 8] was 10.0 h, the “Metabolite to Parent AUCinf Ratio” value [2, 9] was 15.9 and the “Metabolite to Parent AUCt Ratio” value [2, 9] was 15.9. The “Metabolite to Parent Cmax Ratio” value [2, 9] was 3.92, the “Metabolite to Parent AUCinf Ratio” value [2, 10] was 15.7 and the “Metabolite to Parent AUCt Ratio” value [2, 10] was 15.4. The “Metabolite to Parent Cmax Ratio” value [2, 10] was 3.61, the “Cmax upon co-administration with elagolix, in words” value [2, 11] was “increased” and the “changes in metabolite to parent ratios (OH-bupropion/bupropion) of Cmax and AUC” value ([2]; elagolix 300 mg BID) was ≤ 12%. For the same compound, the “increase in Cmax upon co-administration with elagolix” value ([2]; elagolix 300 mg BID) was 32%, the “AUCinf ratio, co-administered with elagolix vs bupropion alone” value [2, 12] was “about 1.063” and the “Cmax ratio, co-administered with elagolix vs bupropion alone” value [2, 12] was “about 1.317”.
For `C#C[C@]1(O)CC[C@H]2[C@@H]3CCC4=CC(=O)CC[C@@H]4[C@H]3CC[C@@]21CC` [levonorgestrel, 17α-Ethynyl-18-methylestr-4-en-17β-ol-3-one], the “Effect on Plasma Exposure of Concomitant Drug (direction of change in AUC)” value (“Effect … (direction of change in AUC)” for short) [3] was “↓levonorgestrel”, the “decrease in plasma concentrations of levonorgestrel” value ([4]; COC containing 0.1 mg levonorgestrel, elagolix 200 mg twice daily) was 27% and the “Ratio (90% CI) AUC, co-administration with elagolix vs medication alone” value [4, 13] was 0.73. For the same compound, the “Ratio (90% CI) Cmax, co-administration with elagolix vs medication alone” value [4, 13] was 0.97, the AUC(0-inf) ([4]; Study Day 1: EE/LNG 0.02 mg/0.1 mg, read-out: AUCinf, Central Value Reference) was 42.1 ng·h/mL and the AUC(0-t) ([4]; Study Day 1: EE/LNG 0.02 mg/0.1 mg, read-out: AUCt, Central Value Reference) was 31.1 ng·h/mL. It also gave a Cmax ([4]; Study Day 1: EE/LNG 0.02 mg/0.1 mg, read-out: Cmax, Central Value Reference) of 2.62 ng/mL, an AUC(0-inf) ([4]; Study Day 18: EE/LNG 0.02 mg/0.1 mg + elagolix 200 mg, read-out: AUCinf, Central Value Test) of 30.5 ng·h/mL and an AUC(0-t) ([4]; Study Day 18: EE/LNG 0.02 mg/0.1 mg + elagolix 200 mg, read-out: AUCt, Central Value Test) of 25 ng·h/mL. For the same compound, the Cmax ([4]; Study Day 18: EE/LNG 0.02 mg/0.1 mg + elagolix 200 mg, read-out: Cmax, Central Value Test) was 2.54 ng/mL, the “decrease in AUCinf” value [4, 14] was 27% and the “decrease in Cmax” value [4, 14] was 3%. For the same compound, the “Effect … (direction of change in AUC)” value [5] was “↓ levonor-”.
For `COc1ccc2nc(S(=O)(=O)Cc3ncc(C)c(OC)c3C)[nH]c2c1` [omeprazole sulfone], the “M:P AUCinf Ratio, Relative Bioavailability Point Estimate” value ([6]; Day 11 vs. Day 1) was 1.246, the “M:P AUCt Ratio, Relative Bioavailability Point Estimate” value ([6]; Day 11 vs. Day 1) was 1.497 and the AUCinf ([6]; Study Day 1, omeprazole 40 mg) was 1400 ng·h/mL. It also gave an AUCt ([6]; Study Day 1, omeprazole 40 mg) of 1240 ng·h/mL, a Cmax ([6]; Study Day 1, omeprazole 40 mg) of 152 ng/mL and a t1/2 ([6]; Study Day 1, omeprazole 40 mg, harmonic mean) of 3.27 h. The “RAUCinf = metabolite-to-omeprazole AUCinf ratio” value ([6]; Study Day 1, omeprazole 40 mg) was 0.85, the “RAUCt = metabolite-to-omeprazole AUCt ratio” value ([6]; Study Day 1, omeprazole 40 mg) was 0.76 and the Tmax ([6]; Study Day 1, omeprazole 40 mg) was 3.5 h. The “M:P AUCinf Ratio, Central Value Reference” value ([6]; Study Day 1: omeprazole 40 mg) was 0.825, the “M:P AUCt Ratio, Central Value Reference” value ([6]; Study Day 1: omeprazole 40 mg) was 0.679 and the AUCinf [6, 15] was 3450 ng·h/mL. For the same compound, the AUCt [6, 15] was 3380 ng·h/mL, the Cmax [6, 15] was 411 ng/mL and the “RAUCinf = metabolite-to-omeprazole AUCinf ratio” value [6, 15] was 0.99. The “RAUCt = metabolite-to-omeprazole AUCt ratio” value [6, 15] was 0.97, the Tmax [6, 15] was 4.0 h and the “M:P AUCinf Ratio, Central Value Test” value [6, 16] was 1.028. The “M:P AUCt Ratio, Central Value Test” value [6, 16] was 1.017, the “Cmax and AUCinf values upon co-administration with elagolix, in words” value [6, 11] was “increased” and the “increase in AUCinf” value ([6]; elagolix 300 mg BID dosing) was 2.5 fold. The “increase in Cmax” value ([6]; elagolix 300 mg BID dosing) was 2.7 fold, the “increase in M:P AUCinf ratio” value ([6]; elagolix 300 mg BID dosing) was 25% and the “increase in exposures (AUCinf) in CYP2C19 EM and IM subjects” value ([6]; extensive and intermediate metabolizers, elagolix co-administration) was ~3 fold. The “AUCinf ratio, co-administered with elagolix vs omeprazole alone” value [6, 17] was “about 2.55” and the “Cmax ratio, co-administered with elagolix vs omeprazole alone” value [6, 17] was “about 2.70”.
In the case of `COc1ccc2[nH]c([S+]([O-])Cc3ncc(C)c(OC)c3C)nc2c1` (stereo not shown) [omeprazole, 5-methoxy-2-[[(4-methoxy3,5-dimethyl-2-pyridinyl)methyl]sulfinyl]-1H-benzimidazole, reference compound], the “Effect … (direction of change in AUC)” value [3] was “↑ omeprazole”, the “Effect … (direction of change in AUC)” value [5] was “↑ omeprazole” and the Tmax ([6]; Study Day 1, omeprazole 40 mg) was 2.0 h. For the same compound, the Tmax [6, 15] was 2.0 h, the t1/2 ([6]; female, human, in vivo) was 1.57 h and the “increase in AUCinf” value ([6]; female, human, in vivo, 300 mg) was 1.8 fold. For the same compound, the “increase in Cmax” value ([6]; female, human, in vivo, 300 mg) was 1.9 fold and the “Cmax and AUCinf values upon co-administration with elagolix, in words” value ([6]; human, in vivo) was “increased”.
